{"source": "patent US9011863B2", "about": "“Combinations of kinase inhibitors for the treatment of cancer” (Exelixis, Inc., priority 2010, dated 2015)", "key": {"[1]": {"test_system": "HCC1937 human breast cancer cells", "experiment": "HCC1937 cell viability, alamar blue assay", "assay_type": "cell-based", "settings": "read-out: growth inhibition IC50", "method": "FIG. 1B. siRNA screen to identify kinases that potentially compensate for PI3K inhibition. HCC1937 cells were seeded in triplicate in a 96-well plate and treated with DMSO or the indicated concentration of compound A for 72 hours. Cell viability was measured by the alamar blue assay.\nThe purpose of the present study is to identify kinases and kinase-regulated signaling pathways that compensate for PI3K inhibition in human breast cancer cells. To this end, siRNA screen is employed targeting 779 human kinases in order to determine if downregulation of specific kinases increases the sensitivity of HCC1937 human breast cancer cells to the PI3K inhibitor compound A, which a compound of formula I and of Table 1. […] Following reverse transfection with the siRNA library, cells are treated with either DMSO or 10 μM compound A for 72 hours in a medium containing 2.5% fetal bovine serum (FIGS. 1A and 2) and the alamar blue assay is used to measure cell viability FIG. 1B. […] HCC1937 cells were treated with 10 μM compound A in medium containing 2.5% FBS for 0, 2, 8, or 24 hours. RNA was isolated with Trizol and purified using the RNeasy column (Qiagen). Gene expression from three independent experiments was measured using the Gene titan 3′ microarray. *, p<0.05; **, p<0.01 versus 0 hours, as shown in FIG. 5."}, "[2]": {"test_system": "human breast cancer cell lines", "experiment": "cell proliferation (cell counting) and crystal violet assays", "assay_type": "cell-based", "method": "Cells were seeded in 12-well plates at a density of 2.5-3.5×10^4 cells/well in medium containing 2.5% FBS±inhibitors. Media and inhibitors were replaced every 3 days. On the days indicated in figures, cells were trypsinized and counted in a Beckman Coulter counter. For crystal violet assay, 5×10^4 cells/well were seeded in 6-well plates and grown in absence or presence of compound A for 6 days, fixed in methanol, stained with crystal violet, and photographed using an Olympus DP10 camera.\n(§1) A panel of breast cancer cell lines with dysregulated PI3K activity was treated with increasing doses of compound A under two- and three-dimensional (2D and 3D) growth conditions. All experiments were conducted in 2.5% FBS-containing media, unless otherwise stated. […] This was further confirmed by immunoblot analysis of biomarkers of cell death and G1-S cell cycle transition in lysates from cells treated for 24 hours with compound A as shown in FIG. 10B."}, "[3]": {"test_system": "pAKT, pS6, HER3, pHER3, HER2 in human breast cancer cell lines", "experiment": "immunoblotting of PI3K/AKT pathway markers", "assay_type": "cell-based", "method": "Immunoprecipitation, immunoblotting, and RTK assays were performed according to published methods. Primary antibodies included AKT, pAKT^S473, pAKT^T308, ERK, pERK^T202/Y204, pHER2^Y1248, pHER3^Y1197, pHER3^Y1222, pHER3^Y1289, S6, pS6^S240/244, p27, pRb^S780, FoxO1, FoxO3a, MEK1/2 (Cell Signaling Technology, Danvers, Mass., USA), p85, 4G10 pTyr (Millipore, Billerica, Mass., USA), HER3, CyclinD1, RhoA, HDAC3 (Santa Cruz Biotechnology, Santa Cruz, Calif., USA), PARP (BD Transduction Laboratories), β-actin (Sigma, St. Louis, Mo., USA), and HER2 (Neomarkers, division of Thermo Scientific, Freemenot, Calif., USA). Species-specific horseradish peroxidase-conjugated secondary antibodies were from Promega (Madison Wis., USA). Immunoreactive signals were detected by enhanced chemilluminsecence (Pierce, Rockford, Ill., USA). Phospho-RTK arrays were from R&D Systems (Minneapolis, Minn., USA) total cell lysates were used to hybridize with the arrays according to the manufacturer's instructions.\nas §1\nExperiments were performed to examine the effect of compound A on a more comprehensive panel of molecules in the PI3K and TOR signaling pathways.\nAlthough pHER3 is known to activate the extracellular signal regulated kinase (ERK/MAPK) via its interaction through the adaptor protein Shc, recovery of pERK upon feedback reactivation of HER3 was not detected consistently as shown in FIG. 13A."}, "FoxO1 and FoxO3a": {"test_system": "FoxO1 and FoxO3a", "experiment": "cytoplasmic and nuclear fractionation, FoxO immunoblot", "assay_type": "cell-based, human", "settings": "BT474 and MDA453; 6 μM compound A or 2 μM 5J8; 4 hours", "description": "Nuclear (Nu) and cytoplasmic (Cy) extracts were isolated and subjected to immunoblotting with FoxO1 and FoxO3a antibodies. Loading controls for Nu: HDAC3; for Cy: RhoA (BT474) and MEK1/2 (MDA453).\nCytoplasmic and nuclear extracts were prepared using the Nuclear Extract Kit from Active Motif. Briefly, cells were plated in 100-mm dishes, treated with inhibitors at the indicated concentrations for 3-4 hours, washed with ice-cold PBS/phosphatase inhibitors, lysed in hypotonic buffer and centrifuged for 30 seconds at 14,000 rpm at 4° C. to collect the supernatant (cytoplasmic extract). The pellet (nuclear fraction) was resuspended in complete lysis buffer and centrifuged for 10 minutes at 14,000 rpm at 4° C. to collect the supernatant (nuclear fraction)."}, "[4]": {"test_system": "subcutaneous A-549 human lung xenografts", "experiment": "antitumor activity in A549 xenografts", "assay_type": "in vivo, Swiss nude mice", "settings": "for activity rating: compound A at 30 mg/kg PO daily (text), 30 mg/kg", "text": "Control groups were left untreated.\nAnimal body weights included the tumor weights."}, "[5]": {"settings": "concentrations below 20 μM, 24 hours"}, "[6]": {"settings": "Compound A PO 5 (160) mg/kg Q1Dx32"}, "[7]": {"settings": "Compound A PO 100 (3200) mg/kg Q1Dx32"}}, "data": [{"smiles": "COc1ccc(Cl)c(Nc2nc3ccccc3nc2NS(=O)(=O)c2cccc(NC(=O)C(C)(C)N)c2)c1", "note": "[Compound A]", "values": [{"measurement": "IC50", "setting": "[1]", "value": 10, "unit": "µM"}, {"measurement": "cell number below baseline", "setting": "[2]; 20 μM", "value": "induced cell death"}, {"measurement": "IC50", "setting": "[2]; Homo sapiens, panel of breast cancer cell lines, 2.5% FBS, read-out: IC50 of cell growth (2D)", "value": "~6", "unit": "µM"}, {"measurement": "2D growth", "setting": "[2]; panel of breast cancer cell lines, increasing doses", "value": "inhibited the 2D growth of all cell lines in a dose-dependent manner"}, {"measurement": "cell lines with upregulation of total HER3 and/or pHER3^Y1289 levels", "setting": "[3]; 24 hours", "value": "6/7"}, {"measurement": "time to recovery of pAKT and pS6 levels", "setting": "[3]; BT474, 6 μM", "value": "≤ 6", "unit": "hours"}, {"measurement": "total HER3, pHER3, pAKT time course", "setting": "[3]; BT474, 6 μM, 0-72 hours", "value": "time-dependent upregulation of total HER3, HER3 phosphorylated at Y1197 and Y1289"}, {"measurement": "HER3 RNA and protein time course", "setting": "[3]; BT-474 cells, 6 uM, inhibitor added every 24 hours", "value": "time-dependent upregulation of HER3 RNA and protein, beginning at 6 hours and increasing through 72 hours"}, {"measurement": "catalytic activity or autophosphorylation of HER2", "setting": "[3]; HER2-overexpressing cells", "value": "does not affect the catalytic activity or autophosphorylation of HER2"}, {"measurement": "P-Erk", "setting": "[3]; SKBR-3 and MDA-453 cells, like in BT-474", "value": "P-Erk is upregulated"}, {"measurement": "pAKT^S473/T308 and pS6^S240/244", "setting": "[3]; all cell lines, 0-20 μM", "value": "dose-dependent reduction in pAKT^S473/T308 and pS6^S240/244"}, {"measurement": "PI3K signaling as measured by pAKT^S473", "setting": "[3]; all cell lines, 24 hours, 0-20 μM", "value": "dose-dependent inhibition of PI3K signaling"}, {"measurement": "cyclin D1, pRB, p27^KIP1", "setting": "[3]; [5]", "value": "reduction in cyclin D1 and pRB and an increase in levels of the CDK inhibitor p27^KIP1"}, {"measurement": "total or cleaved PARP", "setting": "[3]; [5]", "value": "no change in levels of total or cleaved PARP"}, {"measurement": "HER2-overexpressing cell lines with modest upregulation of total HER2 and/or pHER2^Y1248", "setting": "[3]; upon inhibition of PI3K", "value": "5/6"}, {"measurement": "subcellular distribution of FoxO1 and FoxO3a", "setting": "FoxO1 and FoxO3a", "value": "accumulation of both FoxO factors in the nucleus of BT474 and MDA453 cells"}, {"measurement": "Biological response at day 68", "setting": "[4]; [6]", "value": "Very"}, {"measurement": "Median ΔT/ΔC in % day 68", "setting": "[4]; [6]", "value": 5, "unit": "%"}, {"measurement": "Biological response at day 68", "setting": "[4]; [7]", "value": "highly active"}, {"measurement": "Median % of regression on day 68", "setting": "[4]; [7]", "value": 15, "unit": "%"}, {"measurement": "Median ΔT/ΔC in % day 68", "setting": "[4]; [7]", "value": "−4", "unit": "%"}, {"measurement": "Biological response at day 68", "setting": "[4]; Compound A PO 100 (3200) mg/kg Q1Dx32, listed as compound A", "value": "high activity"}, {"measurement": "ΔT/ΔC (treated vs control tumor volume change)", "setting": "[4]; compound A at 30 mg/kg PO daily", "value": 5, "unit": "%"}, {"measurement": "activity rating", "setting": "[4]", "value": "very active"}, {"measurement": "activity rating", "setting": "[4]; listed as compound A", "value": "high activity"}]}]}
